{"source": "paper PMC11503492", "about": "“Activity-Based DNA-Encoded Library Screening for Selective Inhibitors of Eukaryotic Translation” (ACS Central Science, 2024)", "format_in_all_cases": "biochemical, wheat germ", "key": {"[1]": {"test_system": "PCSK9-FS[1:33]-GFP translation", "assay": "WG IVTT microplate activity assay, PCSK9-FS[1:33]-GFP frameshift counter template", "conditions": "for IC50: PCSK9-FS[1:33]-GFP template, triplicate, undetectable IC50 marked >300; for activity on PCSK9-FS[1:33]-GFP translation (in words): frameshift control", "excerpt": "A commercially available wheat germ lysate (WG) IVTT system was employed to assay translation inhibition. Translation activity was detected via a GFP reporter, and the assay was miniaturized to picoliter-scale microfluidic droplets (Figure 1A,B). […] PCSK9 and RPL27 were truncated to the first 33 and 32 amino acids, respectively (PCSK9[1:33] and RPL27[1:32]). The sequences contain distinct PF846 stall sites and were both fused to a GFP reporter. The GFP reporter and a frameshift mutant of PCSK9[1:33] (PCSK9-FS[1:33]), which mutates the nascent chain sequence while maintaining a nearly identical mRNA sequence, were included as negative controls.[13] […] Sequence sensitivity was further confirmed by an N-terminal deletion series of PCSK9[1:33]-GFP; deletion of N-terminal residues increasingly ablated PCSK9[1:33]-GFP translation sensitivity to PF846 (Figure 1D). The WG IVTT assay was miniaturized using a previously described microfluidic circuit modified for longer incubation times (Figure S1)[27] using PF846 as a positive control compound, and assay statistical quality was calculated (Z′=0.7) (Figure 1E). To confirm detection of translation inhibition from library beads, hygromycin B, a nonselective aminoglycoside translation inhibitor, was coupled to beads displaying a photocleavable linker (PC-HygB). UV irradiation releases hygromycin from the bead, allowing it to interact with the WG IVTT assay in the droplet. PC-HygB bead photocleavage supernatant inhibited PCSK9[1:33]-GFP translation both in a microplate assay and in microfluidic droplets (Figure 1F,G, S2). Assay statistical quality using PC-HygB positive control beads was similarly calculated (Z′ = 0.75, Figure 1H). […]\n436 Microplate IVTT Assays\n437 Wheat germ lysate IVTT plate assays were prepared as 5 µL reactions. Wheat germ lysate\n438 (3 µL) was added to test compound or vehicle control (1 µL) in a 384-well black microplate\n439 and the reaction was incubated (10 min, RT). Template (1 µL) was added and reaction\n440 progress was immediately monitored (λex = 480 nm, λem = 530 nm, 27 °C, 2 h). Rela-\n441 tive activity was calculated using the slope of fluorescence increase over time (at 15–30\n442 min post reaction initiation) for compound samples relative to that of the DMSO vehicle\n443 control. All microplate experiments contained 25 ng/µL plasmid, except for assays with\n445 respectively. HeLa lysate IVTT plate assays were prepared as 5.5 µL reactions. […]"}, "[2]": {"test_system": "PCSK9[1:33]-GFP translation", "assay": "Microfluidic activity-based DEL screen in WG IVTT droplets, PCSK9[1:33]-GFP, hit k class by sequencing", "conditions": "number of times hit structure observed on distinct beads, summed across PCSK9[1:33]-GFP screens; *** p < 0.001, NS not significant", "method": "(§1) The validated PF846-inspired library was screened to discover novel translation inhibitors. DEL beads were encapsulated in microfluidic droplets of WG IVTT and irradiated with UV in flow to liberate DEL members into the droplets. The photodosed droplets were incubated and sorted based on fluorescence.[25] PCSK9[1:33]-GFP was chosen as a proof-of-concept target, and PCSK9-FS[1:33]-GFP was used as a counter screen target to identify nonselective compounds. PC-HygB were mixed with DEL beads and screened in the microfluidic device for inhibitors of translation. […] Droplet generation, bead introduction, and library and control bead hit rate were uniform during the screen (Figure 3, bottom).\n(§2) Hit collection DNA tags from the PCSK9[1:33]-GFP and PCSK9-FS[1:33]-GFP screens were sequenced to deduce the structures of molecules that inhibited PCSK9[1:33]- or PCSK9-FS[1:33]-GFP translation. Hit structure k class, the number of times a given hit structure is observed on distinct beads,[31] was summed across screens and visualized as a heat map (Figure 4A). […] The combined hit sets for the two templates contained 121 unique hits with k ≥ 17 across the two screening campaigns. The most frequently observed cycle 1 starter BBs were 1 and 2, which share an 8-methylisoquinoline moiety, but differ in the vector for cycle 2 carboxylic acid connection, and 3, which contains an N-methylazaindole moiety. The most frequently identified cycle 2 tails included carboxylic acids 4–7. […] Substituted pyrazole 6 and pyridyl-benzimidazole 7 also appeared frequently with the aforementioned starters. There were 5 hits that appeared with high k class in both PCSK9[1:33]-GFP and PCSK9[1:33]-FS-GFP screening campaigns.\n(§3) 319 the droplet experiment to homogenize the bead suspension. Syringes were connected to\n(§4) 320 fluidic inputs with microbore Tygon tubing (0.01” x 0.03” IC × OD). Droplet generation oil\n(§5) 321 (OIL1) was 1% picosurf in HFE. Spacing (OIL2) and pinning (OIL3) oils were neat HFE.\n(§6) 322 Assay reagents were driven by displacement syringe pumps (Legato 100, KD Scientific,\n(§7) 323 Holliston, MA) through the circuit. OIL2 and OIL3 were initially flowed (22 µL/min and\n(§8) 324 12 µL/min, respectively) and hit and waste shunt tubing were clamped to backfill the\n(§9) 325 circuit. Once the incubator was filled with oil, the hit and waste tubing were unclamped\n(§10) 326 and back shunts were clamped. AQ1, AQ2, and OIL1 flows were initiated (960 nL/min,\n(§11) 327 640 nL/min, and 1200 nL/min, respectively) and held constant during the screen. Once\n(§12) 328 droplet generation equilibrated (∼10 min), the main shunt was clamped and droplets\n(§13) 329 started to fill the incubator. When droplets filled the incubator and entered the sorting\n(§14) 330 region, data acquisition and screening was initiated.\n(§15) 331 The custom confocal LIF detection setup and LabView code were previously described.S3\n(§16) 332 Briefly, photon counting PMTs (H7828, Hamamatsu, Middlesex, NJ) were used to detect\n(§17) 333 droplet fluorescence emission using a custom two-channel (520 and 570 nm) confocal mi-\n(§18) 334 croscope with laser excitation (488 nm, 20 mW, OBIS-488 20LS, Coherent Inc., Santa Clara,\n(§19) 335 CA). A data acquisition board (DAQ, NI, USB-6341, National Instruments) was used to\n(§20) 336 digitize PMT signal, which was binned into counts, and in-house LabView code was used\n(§21) 337 to control acquisition and execute droplet sorting decisions. Signal was smoothed in real-\n(§22) 338 time using median-filter smoothing (width = 3). Droplets were identified by the 570 nm\n(§23) 339 channel signal and the maximum signal in the 520 nm channel (max = countsn-1 when\n(§24) 340 countsn <countsn-1) was set as the droplet peak value. A roaming sort threshold was\n(§25) 342 the 520 nm channel. The threshold was calculated as µ - 5σ, where µ andσ were the mean\n(§26) 343 and standard deviation of the previous 300 droplets’ fluorescence values, respectively. Hit\n(§27) 344 droplets were not included in the calculation of droplet mean and standard deviation. A […]"}, "[3]": {"test_system": "PCSK9-FS[1:33]-GFP translation", "assay": "Microfluidic activity-based DEL counter screen in WG IVTT droplets, PCSK9-FS[1:33]-GFP, hit k class by sequencing", "conditions": "number of times hit structure observed on distinct beads, summed across PCSK9-FS[1:33]-GFP screens; *** p < 0.001, NS not significant", "method": "as §1, §2, §3, §4, §5, §6, §7, §8, §9, §10, §11, §12, §13, §14, §15, §16, §17, §18, §19, §20, §21, §22, §23, §24, §25, §26, §27"}}, "data": [{"smiles": "Cc1cccc2ccnc(N(C(=O)[C@H]3CCCN(C(=O)c4cccc5c(C#N)c[nH]c45)C3)[C@@H]3CCCNC3)c12", "note": "[Compound 8]", "values": [{"measurement": "IC50", "setting": "[1]", "value": "> 300", "unit": "µM"}, {"measurement": "activity on PCSK9-FS[1:33]-GFP translation (in words)", "setting": "[1]", "value": "inactive"}, {"measurement": "k class PCSK9", "setting": "[2]", "value": 47}, {"measurement": "k class PCSK9-FS", "setting": "[3]", "value": 0}]}, {"smiles": "Cc1cccc2ccnc(N(C(=O)C3CCN(C(=O)c4cccc5c(C#N)c[nH]c45)CC3)[C@@H]3CCCNC3)c12", "note": "[Compound 9]", "values": [{"measurement": "IC50", "setting": "[1]", "value": "24 ± 0.4", "unit": "µM"}, {"measurement": "activity on PCSK9-FS[1:33]-GFP translation (in words)", "setting": "[1]", "value": "similarly active on both templates"}, {"measurement": "k class PCSK9", "setting": "[2]", "value": 28}, {"measurement": "k class PCSK9-FS", "setting": "[3]", "value": 18}]}]}
